{"source": "patent US20170007561A1", "about": "“CONTEMPORANEOUS, HETEROGENEOUSLY-ORIENTED, MULTI-TARGETED THERAPEUTIC MODIFICATION AND/OR MODULATION OF DISEASE BY ADMINISTRATION OF SULFUR-CONTAINING, AMINO ACID-SPECIFIC SMALL MOLECULES” (BioNumerik Pharmaceuticals, Inc., priority 2014, published 2017)", "key": {"[1]": {"test_system": "Trx/TrxR system in human cancer cells", "settings": "cited from earlier work"}, "TrxR/Trx system": {"target": "T1, TrxR/Trx system (Homo sapiens, UniProt P10599)", "T1 construct": "purchased Sigma (Trx); American Diagnostica (bovine TrxR)", "T1 sequence (P10599 1-105)": "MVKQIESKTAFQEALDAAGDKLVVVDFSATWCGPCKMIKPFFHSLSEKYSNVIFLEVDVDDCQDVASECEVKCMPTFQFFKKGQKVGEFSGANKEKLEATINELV", "assay": "TrxR/Trx NADPH oxidation assay", "assay_type": "biochemical", "settings": "increasing concentrations of test substance", "source_text": "(Note: error bars are small and may be obscured by the symbols). […] (Note: error bars were omitted but assays were run in quadruplicate with typical errors of 5-8% between individual replicates). […] Panel D: Initial velocity reaction rates corresponding to progress curves shown in Panel C. With time, Trx-mesna and Trx-GSH are converted back to apo-Trx by Trx reductase (see also, FIG. 69, Panel E)."}, "bovine TrxR": {"target": "T2, bovine TrxR (Bos taurus, UniProt O62768)", "T2 construct": "purchased American Diagnostica", "T2 sequence (O62768 1-499)": "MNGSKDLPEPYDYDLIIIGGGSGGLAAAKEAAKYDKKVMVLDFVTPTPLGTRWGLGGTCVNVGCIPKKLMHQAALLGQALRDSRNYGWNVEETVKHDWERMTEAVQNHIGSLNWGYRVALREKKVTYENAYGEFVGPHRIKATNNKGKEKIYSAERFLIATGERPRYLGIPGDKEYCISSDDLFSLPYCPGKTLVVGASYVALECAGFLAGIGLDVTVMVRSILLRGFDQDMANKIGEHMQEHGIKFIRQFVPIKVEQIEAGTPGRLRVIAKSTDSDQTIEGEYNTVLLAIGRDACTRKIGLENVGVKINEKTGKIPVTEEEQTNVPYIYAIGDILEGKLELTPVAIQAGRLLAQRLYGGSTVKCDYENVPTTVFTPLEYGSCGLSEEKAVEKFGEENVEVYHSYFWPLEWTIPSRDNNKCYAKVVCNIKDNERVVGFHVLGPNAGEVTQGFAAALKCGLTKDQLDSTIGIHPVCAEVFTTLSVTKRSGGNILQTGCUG", "assay": "TrxR NADPH oxidation assay without Trx (Reaction A)", "assay_type": "biochemical", "settings": "TrxR alone + NADPH, no Trx; disulfide 0.5 mM"}, "[2]": {"test_system": "mammalian thioredoxin reductase (TrxR)", "settings": "cited from earlier work"}, "[3]": {"test_system": "bovine brain microtubule protein (α-/β-tubulin)", "assay": "Microtubule protein polymerization assay (OD350)", "assay_type": "biochemical", "settings": "for effect on GTP promoted microtubule protein polymerization: mesna, even at 10 mM"}, "[4]": {"settings": "read-out: Cmax for mesna; 41 g/m^2 Tavocept; cited from earlier work"}, "some cell lines": {"test_system": "some cell lines", "assay": "In vitro cytotoxicity of mesna", "settings": "≦400 μM; unpublished data"}, "[5]": {"test_system": "non-small cell lung cancer", "settings": "patients greater than or equal to 65 years, carboplatin and paclitaxel chemotherapy; cited from earlier work"}, "[6]": {"target": "Recombinant human thioredoxin (Trx) (human) (UniProt P10599)"}, "[7]": {"target": "T3, human Trx with rat liver TrxR (Homo sapiens, UniProt P10599)", "T3 sequence (P10599 1-105)": "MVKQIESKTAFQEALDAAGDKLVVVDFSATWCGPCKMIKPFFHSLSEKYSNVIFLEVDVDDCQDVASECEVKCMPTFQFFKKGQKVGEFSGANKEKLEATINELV", "assay": "TrxR/Trx insulin disulfide reduction assay (NADPH oxidation 340 nm, insulin B chain precipitation 650 nm)", "assay_type": "biochemical", "settings": "modified Trx purified from free Tavocept or glutathione disulfide"}}, "note": "“Also recorded” adds a separate entry of the source.", "data": [{"molecule": "CCOC(=O)NC1=C(N2CC2)C(=O)C(NC(=O)OCC)=C(N2CC2)C1=O", "note": "[Diaziquone]", "values": [{"measurement": "Inhibition of Trx/TrxR system and cellular ribonucleotide reductase activity", "setting": "[1]", "value": "inhibit the Trx/TrxR system resulting in a concentration-dependent inhibition of cellular ribonucleotide reductase activity"}]}, {"molecule": "N[C@@H](CCC(=O)N[C@@H](CSSCCS(=O)(=O)O)C(=O)NCC(=O)O)C(=O)O", "note": "[MSSG, mesna-glutathione disulfide]", "values": [{"measurement": "NADPH oxidation by TrxR and Trx", "setting": "TrxR/Trx system", "value": "increases"}, {"measurement": "NADPH Oxidation, Reaction A", "setting": "bovine TrxR", "value": "0.3 ± 0.02", "unit": "nmol/min/mL"}]}, {"molecule": "NC(CCSSCCS(=O)(=O)O)C(=O)O", "note": "(centres unmarked) [MSSH, mesna-homocysteine disulfide]", "values": [{"measurement": "NADPH oxidation by TrxR and Trx", "setting": "TrxR/Trx system", "value": "increases"}, {"measurement": "NADPH Oxidation, Reaction A", "setting": "bovine TrxR", "value": "0.0 ± 0.03", "unit": "nmol/min/mL"}]}, {"molecule": "COc1cccc2c1C(=O)c1c(O)c3c(c(O)c1C2=O)C[C@@](O)(C(=O)CO)C[C@@H]3O[C@H]1C[C@H](N)[C@H](O)[C@H](C)O1", "note": "[doxorubicin]", "values": [{"measurement": "Inhibition of TrxR", "setting": "[2]", "value": "not inhibitors of TrxR"}, {"measurement": "Inhibition of Trx/TrxR system and cellular ribonucleotide reductase activity", "setting": "[1]", "value": "inhibit the Trx/TrxR system resulting in a concentration-dependent inhibition of cellular ribonucleotide reductase activity"}]}, {"molecule": "O=S(=O)([O-])CCS.[Na+]", "note": "[mesna, 2-mercapto ethane sulfonate]", "values": [{"measurement": "effect alone on microtubule protein polymerization", "setting": "[3]; in the absence of monoaquocisplatin", "value": "neither mesna nor cysteine alone (in the absence of monoaquocisplatin) had any effect; also recorded: no detectable effect"}, {"measurement": "effect on paclitaxel-induced hyperpolymerization of MTP", "setting": "[3]; mesna alone", "value": "no detectable effect"}, {"measurement": "effect on GTP promoted microtubule protein polymerization", "setting": "[3]", "value": "did not affect microtubule protein polymerization in an appreciable manner"}, {"measurement": "effect on GTP promoted microtubule protein polymerization", "setting": "[3]; listed as Mesna", "value": "does not affect"}, {"measurement": "protection against monoaquocisplatin-induced loss of microtubule protein polymerization", "setting": "[3]; preincubated with monoaquocisplatin (36 μM), mesna or cysteine 200 μM", "value": "prevented the monoaquocisplatin-induced loss; also recorded: able to protect"}, {"measurement": "Cmax", "setting": "[4]", "value": "~323", "unit": "µM"}, {"measurement": "Cytotoxicity in vitro", "setting": "some cell lines", "value": "can be cytotoxic to some cell lines"}]}, {"molecule": "Avastin: Avastin (bevacizumab)", "values": [{"measurement": "Survival advantage", "setting": "[5]", "value": "did not confer a survival advantage"}]}, {"molecule": "Recombinant human thioredoxin (Trx) (from UniProt P10599) (enzyme)", "values": [{"measurement": "NADPH Oxidation (nmoles/min/mL) (nmoles/min/mL)", "setting": "insulin", "value": 18}]}, {"molecule": "Tavocept-modified Prx (Prx-mesna) (from UniProt Q06830) (enzyme)", "values": [{"measurement": "rate of NADPH oxidation at 340 nm in the Prx assay (% reduction in rate)", "setting": "[6]", "value": 43}]}, {"molecule": "bovine Trx reductase (TrxR) (from UniProt O62768) (enzyme)", "values": [{"measurement": "NADPH Oxidation (nmoles/min/mL) (nmoles/min/mL)", "setting": "insulin", "value": 0.3}]}, {"molecule": "Trx-mesna: Trx covalently modified by a Tavocept-derived mesna moiety (protein, Tavocept-derived mesna mixed disulfide on Cys73 and on Cys62 or Cys69 (mass spectroscopy), Trx covalently modified by a Tavocept-derived mesna moiety) MVKQIESKTAFQEALDAAGDKLVVVDFSATWCGPCKMIKPFFHSLSEKYSNVIFLEVDVDDCQDVASECEVKCMPTFQFFKKGQKVGEFSGANKEKLEATINELV", "values": [{"measurement": "Effect on initial velocity of insulin reduction relative to apo-Trx", "setting": "[7]", "value": "inhibitory effect"}]}, {"molecule": "Trx-GSH: Trx modified by glutathione after incubation with glutathione disulfide (protein, glutathionylated (cysteine-73 in the control reactions with glutathione), Trx modified by glutathione after incubation with glutathione disulfide) MVKQIESKTAFQEALDAAGDKLVVVDFSATWCGPCKMIKPFFHSLSEKYSNVIFLEVDVDDCQDVASECEVKCMPTFQFFKKGQKVGEFSGANKEKLEATINELV", "values": [{"measurement": "Effect on initial velocity of insulin reduction relative to apo-Trx", "setting": "[7]", "value": "a clear effect on initial velocity"}]}]}
